From PubChem BioAssay (NCI)
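Growth conditions: 96-well plates. Treatment: test compound, 48 hours, 5 concentrations. Analysis: linear interpolation between bracketing concentrations; unreached endpoints set to highest concentration. TGI marks complete inhibition of growth.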

Experiments:
Assay in all cases: inhibition of tumour cell growth, NCI panel, 48 h
786-0 renal = test system: 786-0 renal
A498 renal = test system: A498 renal
A549 NSCLC = test system: A549 NSCLC
ACHN renal = test system: ACHN renal
BT-549 breast = test system: BT-549 breast
CAKI-1 renal = test system: CAKI-1 renal
CCRF-CEM leukemia = test system: CCRF-CEM leukemia
COLO 205 colon = test system: COLO 205 colon
DU-145 prostate = test system: DU-145 prostate
EKVX NSCLC = test system: EKVX NSCLC
HCC-2998 colon = test system: HCC-2998 colon
HCT-116 colon = test system: HCT-116 colon
HCT-15 colon = test system: HCT-15 colon
HL-60(TB) leukemia = test system: HL-60(TB) leukemia
HOP-92 NSCLC = test system: HOP-92 NSCLC
HS 578T breast = test system: HS 578T breast
HT29 colon = test system: HT29 colon
IGROV1 ovarian = test system: IGROV1 ovarian
K-562 leukemia = test system: K-562 leukemia
KM12 colon = test system: KM12 colon
M14 melanoma = test system: M14 melanoma
MALME-3M melanoma = test system: MALME-3M melanoma
MCF7 breast = test system: MCF7 breast
MDA-MB-231 breast = test system: MDA-MB-231 breast
MDA-MB-435 = test system: MDA-MB-435
MDA-N = test system: MDA-N
MOLT-4 leukemia = test system: MOLT-4 leukemia
NCI-H226 lung = test system: NCI-H226 lung
NCI-H23 lung = test system: NCI-H23 lung
NCI-H460 lung = test system: NCI-H460 lung
NCI-H522 lung = test system: NCI-H522 lung
NCI/ADR-RES ovarian = test system: NCI/ADR-RES ovarian
OVCAR-3 ovarian = test system: OVCAR-3 ovarian
OVCAR-4 ovarian = test system: OVCAR-4 ovarian
OVCAR-5 ovarian = test system: OVCAR-5 ovarian
OVCAR-8 ovarian = test system: OVCAR-8 ovarian
PC-3 prostate = test system: PC-3 prostate
RPMI-8226 leukemia = test system: RPMI-8226 leukemia
RXF 393 renal = test system: RXF 393 renal
SF-268 CNS = test system: SF-268 CNS
SF-295 CNS = test system: SF-295 CNS
SF-539 CNS = test system: SF-539 CNS
SK-MEL-2 melanoma = test system: SK-MEL-2 melanoma
SK-MEL-28 melanoma = test system: SK-MEL-28 melanoma
SK-MEL-5 melanoma = test system: SK-MEL-5 melanoma
SK-OV-3 ovarian = test system: SK-OV-3 ovarian
SN12C renal = test system: SN12C renal
SNB-19 CNS = test system: SNB-19 CNS
SNB-75 CNS = test system: SNB-75 CNS
SR leukemia = test system: SR leukemia
SW-620 colon = test system: SW-620 colon
T-47D breast = test system: T-47D breast
TK-10 renal = test system: TK-10 renal
U251 CNS = test system: U251 CNS
UACC-257 melanoma = test system: UACC-257 melanoma
UACC-62 melanoma = test system: UACC-62 melanoma
UO-31 renal = test system: UO-31 renal

Measured: TGI

Cc1ccc2c(c1C)C(=O)C1(C2)Cc2ccc3c(c2C1=O)CCC3 (configuration not stated)
> 100 µM: 786-0 renal | A498 renal | A549 NSCLC | ACHN renal | BT-549 breast | CAKI-1 renal | CCRF-CEM leukemia | COLO 205 colon | DU-145 prostate | EKVX NSCLC | HCC-2998 colon | HCT-116 colon | HCT-15 colon | HL-60(TB) leukemia | HOP-92 NSCLC | HS 578T breast | HT29 colon | IGROV1 ovarian | K-562 leukemia | KM12 colon | M14 melanoma | MALME-3M melanoma | MCF7 breast | MDA-MB-231 breast | MDA-MB-435 | MDA-N | MOLT-4 leukemia | NCI-H226 lung | NCI-H23 lung | NCI-H460 lung | NCI-H522 lung | NCI/ADR-RES ovarian | OVCAR-3 ovarian | OVCAR-4 ovarian | OVCAR-5 ovarian | OVCAR-8 ovarian | PC-3 prostate | RPMI-8226 leukemia | RXF 393 renal | SF-268 CNS | SF-295 CNS | SF-539 CNS | SK-MEL-2 melanoma | SK-MEL-28 melanoma | SK-MEL-5 melanoma | SK-OV-3 ovarian | SN12C renal | SNB-19 CNS | SNB-75 CNS | SR leukemia | SW-620 colon | T-47D breast | TK-10 renal | U251 CNS | UACC-257 melanoma | UACC-62 melanoma | UO-31 renal
